Assay results as given in patent US20240246954A1, “COMPOSITIONS AND METHODS FOR INHIBITING KRAS” (TheRas, Inc., priority 2021, published 2024).

Tests used:
[1] = molecular target: GDP KRAS G12D (Homo sapiens, UniProt P01116, G12D); experiment: SPR binding affinity, GDP KRAS G12D; details: GDP-bound KRAS G12D
[2] = molecular target: GppNHp KRAS G12D (Homo sapiens, UniProt P01116, G12D); experiment: SPR binding affinity, GppNHp KRAS G12D; details: GppNHp-bound KRAS G12D
[3] = molecular target: T1, Avi-KRAS G12D (1-169) GppNHp/RAF1 RBD-3×FLAG (52-151) (Homo sapiens, UniProt P01116, G12D); experiment: HTRF Raf1-KRAS G12D-GppNHp disruption assay; type: biochemical; details: 1 h incubation
T1 construct: Avi-KRAS G12D (1-169) GppNHp
In short: (§1)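 HTRF read-out (320 nm excitation, 615 nm emission) after two 1 h room-temperature incubations, first with protein mix, then detection reagents. Ten-point dilution series starting at 100 μM; results given as % activity relative to DMSO at 100%.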

[4] = molecular target: T2, Avi-KRAS G12D/Q25A (1-169) GppNHp/3×FLAG-PI3KCA (157-299) (Homo sapiens, UniProt P01116, G12D/Q25A); experiment: HTRF PI3KCA-KRAS G12D/Q25A-GppNHp disruption assay; type: biochemical; details: 1 h incubation
T2 construct: Avi-KRAS G12D/Q25A (1-169) GppNHp
In short: as §1

[5] = system: pERK in GP2d cells (KRAS G12D); experiment: Cell-based pERK HTRF assay; details: GP2d, 1 h, 60 min incubation
In short: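 GP2d cells (DMEM, 10% FBS) treated 60 min with compounds in a 9-point half-log series from 1 μM top concentration, 0.25% DMSO. Lysates read for pERK by HTRF (d2/Eu cryptate antibodies) after 4–24 h at room temperature; emission at 615 nm.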

T2 sequence (P01116 1-169 isoform P01116-2 G12D/Q25A limits assumed): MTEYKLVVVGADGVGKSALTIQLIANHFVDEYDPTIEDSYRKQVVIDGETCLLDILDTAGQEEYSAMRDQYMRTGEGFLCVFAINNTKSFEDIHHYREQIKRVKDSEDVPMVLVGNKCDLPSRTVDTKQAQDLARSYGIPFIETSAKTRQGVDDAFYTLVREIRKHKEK
T1 sequence (P01116 1-169 isoform P01116-2 G12D limits assumed): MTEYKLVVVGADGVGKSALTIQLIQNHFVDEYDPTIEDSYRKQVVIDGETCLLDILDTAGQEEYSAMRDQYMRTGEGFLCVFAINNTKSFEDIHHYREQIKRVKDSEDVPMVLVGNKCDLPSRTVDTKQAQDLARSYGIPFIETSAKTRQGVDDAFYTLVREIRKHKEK
Chain of GDP KRAS G12D (P01116 1-188 isoform P01116-2 G12D): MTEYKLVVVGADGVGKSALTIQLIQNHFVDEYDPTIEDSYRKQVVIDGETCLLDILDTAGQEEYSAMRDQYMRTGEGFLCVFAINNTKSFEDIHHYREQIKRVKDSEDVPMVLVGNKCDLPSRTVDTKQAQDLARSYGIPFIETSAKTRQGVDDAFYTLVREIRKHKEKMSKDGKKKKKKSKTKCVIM
Chain of GppNHp KRAS G12D (P01116 1-188 isoform P01116-2 G12D): as above

Structure (SMILES)	Kd [1]	Kd [2]	IC50 [3]	IC50 [4]	IC50 [5]
Nc1nc2c(-c3c(C(F)(F)F)cc4c(N5CC6CCC(C5)N6)nc(OCC56CCCN5CCC6)nc4c3F)ccc(F)c2s1 [Compound 158, 4-(4-(3,8-diazabicyclo[3.2.1]octan-3-yl)-8-fluoro-2-((tetrahydro-1H-pyrrolizin-7a(5H)-yl)methoxy)-6-(trifluoromethyl)quinazolin-7-yl)-7-fluorobenzo[d]thiazol-2-amine]	≤ 100 nM	≤ 100 nM	100 to 1000 nM	100 to 1000 nM	≤ 100 nM
Nc1nc2c(-c3c(C(F)(F)F)cc4c(NC5CNC5)nc(OCC56CCCN5CCC6)nc4c3F)ccc(F)c2s1 [Compound 120]	≤ 100 nM	≤ 100 nM	100 to 1000 nM	100 to 1000 nM	> 1000 nM
Nc1nc2c(-c3c(Cl)cc4c(N5CC6CCC(C5)N6)nc(OCC56CCCN5CCC6)nc4c3F)ccc(F)c2s1 [Compound 157, 4-(4-(3,8-diazabicyclo[3.2.1]octan-3-yl)-6-chloro-8-fluoro-2-((tetrahydro-1H-pyrrolizin-7a(5H)-yl)methoxy)quinazolin-7-yl)-7-fluorobenzo[d]thiazol-2-amine]	≤ 100 nM	≤ 100 nM	100 to 1000 nM	100 to 1000 nM	100 to 1000 nM
Nc1nc2c(-c3c(C(F)(F)F)cc4c(N5CC6CCC(C5)N6)nc(OC[C@@]56CCCN5C[C@H](F)C6)nc4c3F)ccc(F)c2s1 [Compound 219, 4-(4-(3,8-diazabicyclo[3.2.1]octan-3-yl)-8-fluoro-2-(((2R,7aS)-2-fluorotetrahydro-1H-pyrrolizin-7a(5H)-yl)methoxy)-6-(trifluoromethyl)quinazolin-7-yl)-7-fluorobenzo[d]thiazol-2-amine]	≤ 100 nM	≤ 100 nM	≤ 100 nM	100 to 1000 nM	≤ 100 nM
Nc1nc2c(-c3c(C(F)(F)F)cc4c(N[C@@H]5CCNC5)nc(OC[C@@]56CCCN5C[C@H](F)C6)nc4c3F)ccc(F)c2s1 (atropisomer, axis not shown) [Compound 248]	≤ 100 nM	≤ 100 nM	≤ 100 nM	100 to 1000 nM	> 1000 nM
Nc1nc2c(-c3c(C(F)(F)F)cc4c(N5CC6CCC(C5)N6)nc(OC[C@@]56CCCN5C[C@H](F)C6)nc4c3F)ccc(F)c2s1 (single isomer, unassigned) [Compound 245]	≤ 100 nM	≤ 100 nM	≤ 100 nM	≤ 100 nM	≤ 100 nM
N#Cc1c(N)sc2c(F)ccc(-c3c(Cl)cc4c(N5C[C@H]6CC[C@@H](C5)N6)nc(OC[C@@]56CCCN5C[C@H](F)C6)nc4c3F)c12 [Compound 260, 4-(4-((1R,5S)-3,8-diazabicyclo[3.2.1]octan-3-yl)-6-chloro-8-fluoro-2-(((2R,7aS)-2-fluorotetrahydro-1H-pyrrolizin-7a(5H)-yl)methoxy)quinazolin-7-yl)-2-amino-7-fluorobenzo[b]thiophene-3-carbonitrile]	≤ 100 nM	≤ 100 nM	≤ 100 nM	100 to 1000 nM	≤ 100 nM
CN1C2CCC1CN(c1nc(OC[C@@]34CCCN3C[C@H](F)C4)nc3c(F)c(-c4ccc(F)c5sc(N)nc45)c(C(F)(F)F)cc13)C2 [Compound 221]	≤ 100 nM	1000 to 10000 nM	1000 to 10000 nM	1000 to 10000 nM	100 to 1000 nM
